{"source": "paper PMC7106896", "about": "“Synthesis and biological evaluation of 2-(4-methylsulfonyl phenyl) indole derivatives: multi-target compounds with dual antimicrobial and anti-inflammatory activities” (BMC Chemistry, 2020)", "key": {"[1]": {"tested_on": "Acinetobacter baumannii (ATCC 19606)", "experiment": "Antimicrobial screening (CO-ADD), growth inhibition at single concentration", "type": "cell-based", "conditions": "ATCC19606, at 32 µg/mL concentration, read-out: growth inhibition % Ab (A. baumannii)", "procedure": "(§1) The antimicrobial study was performed by CO-ADD (The Community for Antimicrobial Drug Discovery), funded by the Wellcome Trust (UK) and The University of Queensland (Australia). Evaluation of all synthesized compounds for their antimicrobial activities was done against five pathogenic bacteria, methicillin-resistant Staphylococcus aureus (ATCC 43300) as Gram-positive bacteria, Escherichia coli (ATCC 25922), Klebsiella pneumonia (ATCC 700603), Acinetobacter baumannii (ATCC 19606) and Pseudomonas aeruginosa (ATCC 27853) as Gram-negative bacteria and antifungal activity against two pathogenic fungal strains Candida albicans (ATCC 90028) and Cryptococcus neoformans var. grubii (H99; ATCC 208821) (Table 1)."}, "[2]": {"tested_on": "Escherichia coli (ATCC 25922)", "experiment": "Antimicrobial screening (CO-ADD), growth inhibition at single concentration", "type": "cell-based", "conditions": "ATCC25922, at 32 µg/mL concentration, read-out: growth inhibition % Ec (E. coli)", "procedure": "as §1"}, "[3]": {"tested_on": "Klebsiella pneumonia (ATCC 700603)", "experiment": "Antimicrobial screening (CO-ADD), growth inhibition at single concentration", "type": "cell-based", "conditions": "Klebsiella pneumoniae, ATCC700603; at 32 µg/mL concentration; read-out: growth inhibition % Kp (K. pneumoniae)", "procedure": "as §1"}, "[4]": {"tested_on": "Pseudomonas aeruginosa (ATCC 27853)", "experiment": "Antimicrobial screening (CO-ADD), growth inhibition at single concentration", "type": "cell-based", "conditions": "ATCC27853, at 32 µg/mL concentration, read-out: growth inhibition % Pa (P. aeruginosa)", "procedure": "as §1"}, "[5]": {"tested_on": "methicillin-resistant Staphylococcus aureus (ATCC 43300)", "experiment": "Antimicrobial screening (CO-ADD), growth inhibition at single concentration", "type": "cell-based", "conditions": "ATCC 43300 / MRSA, at 32 µg/mL concentration, read-out: growth inhibition % Sa (MRSA)", "procedure": "as §1"}, "[6]": {"tested_on": "Candida albicans (ATCC 90028)", "experiment": "Antifungal screening (CO-ADD), growth inhibition at single concentration", "type": "cell-based", "conditions": "ATCC90028, at 32 µg/mL concentration, read-out: growth inhibition % Ca (C. albicans)", "procedure": "as §1"}, "[7]": {"tested_on": "MRSA", "experiment": "Minimal inhibitory concentration measurement", "type": "cell-based", "conditions": "Staphylococcus aureus, read-out: MIC Sa (MRSA)", "quoted_text": "(§3) The antimicrobial and antifungal screening was performed according to CO-ADD (The Community for Antimicrobial Drug Discovery) procedures [27]."}, "[8]": {"tested_on": "E. coli", "experiment": "Minimal inhibitory concentration measurement", "type": "cell-based", "conditions": "Escherichia coli; read-out: MIC Ec (E. coli)", "quoted_text": "as §3"}, "[9]": {"tested_on": "P. aeruginosa", "experiment": "Minimal inhibitory concentration measurement", "type": "cell-based", "conditions": "Pseudomonas aeruginosa; read-out: MIC Pa (P. aeruginosa)", "quoted_text": "as §3"}, "[10]": {"tested_on": "A. baumannii", "experiment": "Minimal inhibitory concentration measurement", "type": "cell-based", "conditions": "Acinetobacter baumannii; read-out: MIC Ab (A. baumannii)", "quoted_text": "as §3"}, "[11]": {"tested_on": "C. albicans", "experiment": "Minimal inhibitory concentration measurement", "type": "cell-based", "conditions": "Candida albicans; read-out: MIC Ca (C. albicans)", "quoted_text": "as §3"}, "[12]": {"tested_on": "C. neoformans var. grubii", "experiment": "Minimal inhibitory concentration measurement", "type": "cell-based", "conditions": "Cryptococcus neoformans; read-out: MIC Cn (C. neoformans var. grubii)", "quoted_text": "as §3"}, "[13]": {"experiment": "Cytotoxicity against human embryonic kidney cell line", "type": "cell-based", "conditions": "read-out: CC50 (concentration at 50% cytotoxicity)", "procedure": "(§2) The safety margin for the active compounds to human cells was determined through cytotoxicity against human embryonic kidney cell line and hemolysis of human red blood cells. The tested compounds 7a, 7g, and 7i were tolerated and non-toxic to human cells as the cytotoxic and hemolytic dose was higher than the therapeutic dose (Table 2)."}, "[14]": {"tested_on": "human red blood cells", "experiment": "Hemolysis of human red blood cells", "type": "cell-based", "procedure": "as §2"}, "[15]": {"target": "T1, Ovine COX-1 (Ovis aries, UniProt P05979)", "T1 construct": "purchased Cayman Chemical, Ann Arbor, MI, USA 760111", "T1 sequence (P05979 25-600)": "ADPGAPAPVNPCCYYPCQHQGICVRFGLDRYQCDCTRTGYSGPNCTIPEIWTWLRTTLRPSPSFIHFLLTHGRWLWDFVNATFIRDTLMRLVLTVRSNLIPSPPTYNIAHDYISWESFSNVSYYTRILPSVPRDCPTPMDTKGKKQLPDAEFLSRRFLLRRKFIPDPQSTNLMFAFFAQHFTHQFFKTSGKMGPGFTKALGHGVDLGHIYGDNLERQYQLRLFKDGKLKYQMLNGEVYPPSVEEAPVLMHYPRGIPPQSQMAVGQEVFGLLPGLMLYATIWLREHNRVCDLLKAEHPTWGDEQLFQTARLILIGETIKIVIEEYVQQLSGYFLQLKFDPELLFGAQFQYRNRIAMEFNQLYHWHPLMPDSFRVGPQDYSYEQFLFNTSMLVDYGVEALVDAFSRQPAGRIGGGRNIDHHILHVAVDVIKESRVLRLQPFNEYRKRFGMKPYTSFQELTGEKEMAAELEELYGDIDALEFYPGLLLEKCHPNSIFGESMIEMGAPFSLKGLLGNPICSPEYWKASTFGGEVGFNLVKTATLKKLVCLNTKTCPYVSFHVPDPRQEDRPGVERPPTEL", "experiment": "In vitro COX inhibition colorimetric assay", "type": "biochemical"}, "[16]": {"tested_on": "human recombinant COX-2", "experiment": "In vitro COX inhibition colorimetric assay", "type": "biochemical", "conditions": "COX-1 IC50/COX-2 IC50"}, "[17]": {"tested_on": "carrageenan-induced rat paw edema", "experiment": "Carrageenan-induced rat paw edema assay", "type": "in vivo", "conditions": "for Edema thickness (mm) ± SEM: n = 4", "procedure": "Pretreatment of rats with compounds 7a–k, 8a–c, and 9a–c before injection with carrageenan in rat paw which induces inflammation and then the percentage of paw edema reduction was measured after certain hours according to previously reported procedures."}, "[18]": {"tested_on": "MRSA bacteria and E. coli, K. pneumoniae, P. aeruginosa, and A. baumannii", "experiment": "Antibacterial screening, result pooled over the five bacteria", "type": "cell-based", "conditions": "read-out: growth inhibition, range over MRSA, E. coli, K. pneumoniae, P. aeruginosa and A. baumannii", "procedure": "as §1"}, "[19]": {"tested_on": "K. pneumoniae", "quoted_text": "as §3"}}}
{"compound": "CS(=O)(=O)c1ccc(-c2[nH]c3ccc(F)cc3c2/C=N/Nc2ccc(S(N)(=O)=O)cc2)cc1", "note": "[Compound 7i, 4-(2-((5-Fluoro-2-(4-(methylsulfonyl)phenyl)-1H-indol-3yl)methylene)hydrazinyl) benzene sulfonamide]", "values": [{"measurement": "inhibition at 32 µg/mL", "setting": "[1]", "result": 94.3, "unit": "%"}, {"measurement": "inhibition at 32 µg/mL", "setting": "[2]", "result": 96.5, "unit": "%"}, {"measurement": "inhibition at 32 µg/mL", "setting": "[3]", "result": 94.4, "unit": "%"}, {"measurement": "inhibition at 32 µg/mL", "setting": "[4]", "result": 96.9, "unit": "%"}, {"measurement": "inhibition at 32 µg/mL", "setting": "[5]", "result": 95.2, "unit": "%"}, {"measurement": "inhibition at 32 µg/mL", "setting": "[6]", "result": 15.3, "unit": "%"}, {"measurement": "MIC", "setting": "[7]", "result": 2, "unit": "µg/mL"}, {"measurement": "MIC", "setting": "[8]", "result": "≤ 0.25", "unit": "µg/mL"}, {"measurement": "MIC", "setting": "[9]", "result": 2, "unit": "µg/mL"}, {"measurement": "MIC", "setting": "[10]", "result": 4, "unit": "µg/mL"}, {"measurement": "MIC", "setting": "[11]", "result": "> 32", "unit": "µg/mL"}, {"measurement": "MIC", "setting": "[12]", "result": "> 32", "unit": "µg/mL"}, {"measurement": "CC50", "setting": "[13]", "result": 2.99, "unit": "µg/mL"}, {"measurement": "HC10 (concentration at 10% hemolysis)", "setting": "[14]", "result": "> 32", "unit": "µg/mL"}, {"measurement": "IC50", "setting": "[15]", "result": 13.2, "unit": "µM"}, {"measurement": "Selectivity index (SI)", "setting": "[16]", "result": 132}, {"measurement": "Edema inhibition %", "setting": "[17]; 1 h", "result": 73.1, "unit": "%"}, {"measurement": "Edema thickness (mm) ± SEM", "setting": "[17]; 1 h", "result": "0.705 ± 0.047", "unit": "mm"}, {"measurement": "Edema inhibition %", "setting": "[17]; 3 h", "result": 94.3, "unit": "%"}, {"measurement": "Edema thickness (mm) ± SEM", "setting": "[17]; 3 h", "result": "0.127 ± 0.009", "unit": "mm"}, {"measurement": "Edema inhibition %", "setting": "[17]; 6 h", "result": 90.1, "unit": "%"}, {"measurement": "Edema thickness (mm) ± SEM", "setting": "[17]; 6 h", "result": "0.187 ± 0.015", "unit": "mm"}, {"measurement": "inhibition at 32 µg/mL", "setting": "[18]", "result": "85.8 to 97.8", "unit": "%"}, {"measurement": "melting point", "result": "212 to 214", "unit": "°C"}, {"measurement": "MIC Kp (K. pneumoniae)", "setting": "[19]", "result": 2, "unit": "µg/mL"}]}
